ChEMBL document CHEMBL1140823, “Pyrazolopyridines with potent activity against herpesviruses: effects of C5 substituents on antiviral activity” (Bioorg Med Chem Lett, 2008)

Columns and labels:
[1] = system: Human alphaherpesvirus 1; experiment: Antiviral activity against HSV1 SC16 in african green monkey Vero cells; format: functional, organism-based; settings: Human alphaherpesvirus 1, SC16, Vero
[2] = Cytotoxicity against african green monkey Vero cells; format: cell-based; settings: chlorocebus sabaeus

Compound | IC50 [1] [µM] | CC50 [2] [µM]
Fc1ccc(-c2nn3c(NC4CC4)cc(Cl)cc3c2-c2ccnc(NC3CCCC3)n2)cc1 | 0.33 | > 40
CC(C)Oc1cc(NC2CCCC2)n2nc(-c3ccc(F)cc3)c(-c3ccnc(NC4CCCC4)n3)c2c1 | 0.07 | > 40
COc1ccc(-c2nn3c(Cl)cc(Cl)cc3c2-c2ccnc(NC3CCCC3)n2)cc1 | 5.3 | > 40
COc1ccc(-c2nn3c(SC(C)C)cc(NC4CCCC4)cc3c2-c2ccnc(NC3CCCC3)n2)cc1 | 0.21 | > 40
Fc1ccc(-c2nn3c(NC4CCCC4)cccc3c2-c2ccnc(NC3CCCC3)n2)cc1 | 0.26 | > 160
COc1cc(NC2CCCC2)n2nc(-c3ccc(F)cc3)c(-c3ccnc(NC4CCCC4)n3)c2c1 | 0.13 | > 40
CCSc1cc(NC2CCCC2)cc2c(-c3ccnc(NC4CCCC4)n3)c(-c3ccc(OC)cc3)nn12 | 0.04 | > 40
COc1ccn2nc(-c3ccc(F)cc3)c(-c3ccnc(NC4CCCC4)n3)c2c1 | > 36 | > 36
Fc1ccc(-c2nn3c(NC4CCCC4)cc(OCC4CC4)cc3c2-c2ccnc(NC3CCCC3)n2)cc1 | 0.17 | > 40
c1cc(-c2c(-c3ccc(OCC4CC4)cc3)nn3ccc(NC4CCCC4)cc23)nc(NC2CCCC2)n1 | 0.33 | > 40
CC(C)COc1ccc(-c2nn3ccc(NC4CCCC4)cc3c2-c2ccnc(NC3CCCC3)n2)cc1 | 0.56 | 27
CC(C)Nc1cc(NC(C)C)n2nc(-c3ccc(F)cc3)c(-c3ccnc(NC4CCCC4)n3)c2c1 | 0.55 | > 40
COCCOc1cc(NC2CCCC2)n2nc(-c3ccc(F)cc3)c(-c3ccnc(NC4CCCC4)n3)c2c1 | 0.32 | > 40
COc1ccc(-c2nn3c(SC)cc(NC4CCCC4)cc3c2-c2ccnc(NC3CCCC3)n2)cc1 | 0.22 | > 40
Fc1ccc(-c2nn3ccc(Cl)cc3c2-c2ccnc(NC3CCCC3)n2)cc1 | > 5 | > 40
COc1ccc(-c2nn3c(NC4CC4)cc(Cl)cc3c2-c2ccnc(NC3CCCC3)n2)cc1 | 0.34 | > 40
Fc1ccc(-c2nn3c(NC4CCCC4)cc(NC4CCCC4)cc3c2-c2ccnc(NC3CCCC3)n2)cc1 | 0.24 | > 40
CC(C)Nc1cc(Cl)cc2c(-c3ccnc(NC4CCCC4)n3)c(-c3ccc(F)cc3)nn12 | 1.5 | > 40
Fc1ccc(-c2nn3ccc(N4CCCC4)cc3c2-c2ccnc(NC3CCCC3)n2)cc1 | 1.35 | > 40
Nc1ccn2nc(-c3ccc(F)cc3)c(-c3ccnc(NC4CCCC4)n3)c2c1 | 5.07 | 20
CC(C)Sc1cc(NC2CCCC2)cc2c(-c3ccnc(NC4CCCC4)n3)c(-c3ccc(F)cc3)nn12 | 0.37 | > 40
CCSc1cc(NC2CCCC2)cc2c(-c3ccnc(NC4CCCC4)n3)c(-c3ccc(F)cc3)nn12 | 0.07 | > 40

Compound | IC50 [1] [µM] | CC50 [2] [µM]
Fc1ccc(-c2nn3c(Cl)cc(NC4CCCC4)cc3c2-c2ccnc(NC3CCCC3)n2)cc1 | 1.36 | > 40
CC(C)Nc1ccn2nc(-c3ccc(F)cc3)c(-c3ccnc(NC4CCCC4)n3)c2c1 | 2.73 | > 40
Fc1ccc(-c2nn3c(N4CCOCC4)cc(Cl)cc3c2-c2ccnc(NC3CCCC3)n2)cc1 | 0.18 | > 40
COc1ccc(-c2nn3ccc(NC(C)C)cc3c2-c2ccnc(NC3CCCC3)n2)cc1 | 0.92 | > 40
COc1ccc(-c2nn3ccc(Cl)cc3c2-c2ccnc(NC3CCCC3)n2)cc1 | 4.27 | > 40
Nc1nc2c(ncn2COCCO)c(=O)[nH]1 [ACYCLOVIR] | 0.39 | > 200
COc1ccc(-c2nn3c(NC4CCCC4)cc(Cl)cc3c2-c2ccnc(NC3CCCC3)n2)cc1 | 0.22 | > 40
Fc1ccc(-c2nn3c(Cl)cc(Cl)cc3c2-c2ccnc(NC3CCCC3)n2)cc1 | 7 | > 40
COc1ccc(-c2nn3c(Sc4ccccc4)cc(NC4CCCC4)cc3c2-c2ccnc(NC3CCCC3)n2)cc1 | 1.8 | > 40
Fc1ccc(-c2nn3c(N4CCCCC4)cc(Cl)cc3c2-c2ccnc(NC3CCCC3)n2)cc1 | 0.15 | > 40
COCCOc1cc(NC2CCCC2)cc2c(-c3ccnc(NC4CCCC4)n3)c(-c3ccc(F)cc3)nn12 | 0.08 | 32.5
Fc1ccc(-c2nn3ccc(NC4CCCC4)cc3c2-c2ccnc(NC3CCCC3)n2)cc1 | 0.53 | 18
CN(C)c1cc(Cl)cc2c(-c3ccnc(NC4CCCC4)n3)c(-c3ccc(F)cc3)nn12 | 0.38 | > 40
COc1ccc(-c2nn3ccc(NC4CCCC4)cc3c2-c2ccnc(NC3CCCC3)n2)cc1 | 0.21 | 12.3
Fc1ccc(-c2nn3ccc(N4CCOCC4)cc3c2-c2ccnc(NC3CCCC3)n2)cc1 | 3.63 | 34
CSc1cc(NC2CCCC2)cc2c(-c3ccnc(NC4CCCC4)n3)c(-c3ccc(F)cc3)nn12 | 0.17 | > 40
c1cc(NC2CCCC2)n2nc(-c3ccc(OCC4CC4)cc3)c(-c3ccnc(NC4CCCC4)n3)c2c1 | 0.17 | > 40
COCCNc1ccn2nc(-c3ccc(F)cc3)c(-c3ccnc(NC4CCCC4)n3)c2c1 | 0.83 | > 40
Fc1ccc(-c2nn3c(NC4CCCC4)cc(Cl)cc3c2-c2ccnc(NC3CCCC3)n2)cc1 | 0.33 | > 40
COc1ccc(-c2nn3c(NC4CCCC4)cccc3c2-c2ccnc(NC3CCCC3)n2)cc1 | 0.22 | > 100
CCOc1cc(NC2CCCC2)cc2c(-c3ccnc(NC4CCCC4)n3)c(-c3ccc(F)cc3)nn12 | 0.16 | 20.6
